Source: patent publication US20260001888A1, “PYRAZOLOPYRIMIDINE PDE9 INHIBITORS” (Merck Sharp & Dohme LLC, priority 2018, published 2026)

Each molecule was assayed against Human PDE9 (PDE9A2) (Homo sapiens (Human), UniProt O76083) (assay: PDE9 IMAP fluorescence polarization (FP) inhibition assay). Settings: apparent inhibition constant; human PDE9A2, FAM-cGMP substrate 50 nM, room temperature.
Assay type: biochemical
Experimental: The activity of the compounds in accordance with the present invention as PDE9 inhibitors may be readily determined without undue experimentation using a fluorescence polarization (FP) methodology that is well known in the art (Huang, W., et al., J. Biomol Screen, 2002, 7:215).
In a typical experiment the PDE9 inhibitory activity of the compounds of the present invention was determined in accordance with the following experimental method.
Human PDE9 (PDE9A2, GenBank Accession No. NM_001001567), full length with N-terminal GST tag, was purchased from BPS Bioscience. The fluorescence polarization assay for cyclic nucleotide phosphodiesterases was performed using an IMAP® FP kit supplied by Molecular Devices, Sunnyvale, CA (product #R8139). IMAP® technology has been applied previously to phosphodiesterase assays (Huang, W., et al., J. Biomol Screen, 2002, 7:215). Assays were performed at room temperature in 384-well microtiter plates with an incubation volume of 20.2 μL. Solutions of test compounds were prepared in DMSO and serially diluted with DMSO to yield 8 μL of each of 10 solutions differing by 3-fold in concentration, at 32 serial dilutions per plate. 100% inhibition is determined using a known PDE9 inhibitor, such as 1-(2-chlorophenyl)-6-[(2R)-3,3,3-trifluoro-2-methylpropyl]-1,5-dihydro-4H-pyrazolo[3,4-d]pyrimidine-4-one (BAY 73-6691) (Wunder et al, Mol. Pharmacol., 2005, 68 (6): 1775-81), (6-[(3S,4S)-4-methyl-1-(pyrimidin-2-ylmethyl) pyrrolidin-3-yl]-1-(tetrahydro-2H-pyran-4-yl)-1,5-dihydro-4H-pyrazolo[3,4-d]pyrimidin-4-one (PF-04447943) (Wager et al., ACS Chemical Neuroscience, 2010, 1:435-449). 0% of inhibition is determined by using DMSO (1% final concentrations). A Labcyte Echo 555 (Labcyte, Sunnyvale, CA) is used to dispense 200 nL from each well of the titration plate to the 384 well assay plate. Human PDE9A2 membrane preps were diluted to 1 ng/ml. […] PDE9 enzyme mix and compounds were mixed and incubated at room temperature for 30 min. Following which, FAMcGMP substrate was added, shaken and incubated for an additional 60 min at room temperature. The final concentration of human PDE9 membrane preparations were 0.5 ng/ml. The final concentration of FAM-cGMP was 50 nM. After the incubation period, the enzymatic reaction was stopped by addition of binding solution (IMAP-FP, Molecular Devices, comprised of 80% Solution A, 20% Solution B and a 1:600 dilution of binding reagent) to each well. The plates were shaken then incubated at room temperature for 1 h prior to determining the fluorescence polarization (mP) using a Perkin Elmer En Vision™ plate reader (Waltham, MA).
Fluorescence polarization (mP) was calculated from the parallel(S) and perpendicular (P) fluorescence of each sample well and the analogous values for the median control well, containing only substrate (So and Po), using the following equation: […]
Dose-inhibition profiles for each compound were characterized by fitting the mP data to a four-parameter equation given below. The apparent inhibition constant (KI), the maximum inhibition at the low plateau relative to “100% Inhibition Control” (Imax; e.g. 1=>same as this control), the minimum inhibition at the high plateau relative to the “0% Inhibition Control” (Imin, e.g. 0=>same as the no drug control) and the Hill slope (nH) are determined by a non-linear least squares fitting of the mP values as a function of dose of the compound using an in-house software based on the procedures described by Mosser et al., JALA, 2003, 8:54-63, using the following equation: […]
An apparent (Km) for FAM-labeled […] of 150 nM was determined in separate experiments through simultaneous variation of substrate and selected drug concentrations.

Human PDE9 (PDE9A2), sequence (O76083 other isoform, or with tags, fused parts or gaps): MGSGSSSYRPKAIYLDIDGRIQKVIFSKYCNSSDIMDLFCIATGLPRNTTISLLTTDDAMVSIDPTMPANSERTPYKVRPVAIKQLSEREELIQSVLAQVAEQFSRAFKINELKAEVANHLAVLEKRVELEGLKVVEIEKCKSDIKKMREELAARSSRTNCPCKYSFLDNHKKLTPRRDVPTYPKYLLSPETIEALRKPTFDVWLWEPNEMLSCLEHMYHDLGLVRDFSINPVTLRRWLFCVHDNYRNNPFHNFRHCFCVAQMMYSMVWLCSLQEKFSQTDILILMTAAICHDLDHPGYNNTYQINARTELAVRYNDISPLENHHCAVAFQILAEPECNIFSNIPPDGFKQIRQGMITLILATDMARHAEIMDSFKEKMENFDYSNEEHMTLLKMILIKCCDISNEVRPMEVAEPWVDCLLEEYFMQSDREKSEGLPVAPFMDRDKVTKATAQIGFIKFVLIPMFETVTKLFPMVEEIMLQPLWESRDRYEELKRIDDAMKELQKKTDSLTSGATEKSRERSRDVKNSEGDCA

Ki [nM]	SMILES
11.9	CCC(Nc1nc2c(c(C#N)nn2C(C)c2ccc(C(F)(F)F)nc2)c(=O)[nH]1)c1ncccn1 (single isomer, unassigned) [Example 71, 4-Oxo-6-((1-(pyrimidin-2-yl)propyl)amino)-1-(1-(6-(trifluoromethyl)pyridin-3-yl)ethyl)-4,5-dihydro-1H-pyrazolo[3,4-d]pyrimidine-3-carbonitrile]
1.17	CC(Cc1nc2c(c(C#N)nn2C(C)c2ccc(C(F)(F)F)nc2)c(=O)[nH]1)c1ncccn1 (single isomer, unassigned) [Example 85, 4-oxo-6-(2-(pyrimidin-2-yl)propyl)-1-(1-(6-(trifluoromethyl)pyridin-3-yl)ethyl)-4,5-dihydro-1H-pyrazolo[3,4-d]pyrimidine-3-carbonitrile]
243	CC(c1ncccn1)N(C)c1nc2c(c(C#N)nn2C(C)c2ccc(C(F)(F)F)nc2)c(=O)[nH]1 (single isomer, unassigned) [Example 8, 6-[methyl(1-pyrimidin-2-ylethyl)amino]-4-oxo-1-[1-[6-(trifluoromethyl)-3-pyridyl]ethyl]-5H-pyrazolo[3,4-d]pyrimidine-3-carbonitrile]
19.6	C=CCCC(c1ncccn1)N(C)c1nc2c(c(C#N)nn2C(C)c2ccc(C(F)(F)F)nc2)c(=O)[nH]1 (single isomer, unassigned) [Example 44, 6-[methyl(1-pyrimidin-2-ylpent-4-enyl)amino]-4-oxo-1-[1-[6-(trifluoromethyl)-3-pyridyl]ethyl]-5H-pyrazolo[3,4-d]pyrimidine-3-carbonitrile]
2.3	CC(c1ncccn1)N(C)c1nc2c(c(C#N)nn2C(C)c2ccc(C(F)(F)F)nc2)c(=O)[nH]1 (single isomer, unassigned) [Example 5, 6-[methyl(1-pyrimidin-2-ylethyl)amino]-4-oxo-1-[1-[6-(trifluoromethyl)-3-pyridyl]ethyl]-5H-pyrazolo[3,4-d]pyrimidine-3-carbonitrile]
0.42	C=CCCC(c1ncccn1)N(C)c1nc2c(c(C#N)nn2C(C)c2ccc(C(F)(F)F)nc2)c(=O)[nH]1 (single isomer, unassigned) [Example 41, 6-[methyl(1-pyrimidin-2-ylpent-4-enyl)amino]-4-oxo-1-[1-[6-(trifluoromethyl)-3-pyridyl]ethyl]-5H-pyrazolo[3,4-d]pyrimidine-3-carbonitrile]
6.21	CC(c1ncccn1)N(C)c1nc2c(c(C#N)nn2C(C)c2ccc(C(F)(F)F)nc2)c(=O)[nH]1 (single isomer, unassigned) [Example 6, 6-[methyl(1-pyrimidin-2-ylethyl)amino]-4-oxo-1-[1-[6-(trifluoromethyl)-3-pyridyl]ethyl]-5H-pyrazolo[3,4-d]pyrimidine-3-carbonitrile]
6.5	CC(C)C(c1ncccn1)N(C)c1nc2c(c(C#N)nn2C(C)c2ccc(C(F)(F)F)nc2)c(=O)[nH]1 (single isomer, unassigned) [Example 22, 6-[methyl-(2-methyl-1-pyrimidin-2-yl-propyl)amino]-4-oxo-1-[1-[6-(trifluoromethyl)-3-pyridyl]ethyl]-5H-pyrazolo[3,4-d]pyrimidine-3-carbonitrile]
60.7	CC(Cc1nc2c(c(C#N)nn2C(C)c2ccc(C(F)(F)F)nc2)c(=O)[nH]1)c1ncccn1 (single isomer, unassigned) [Example 83, 4-oxo-6-(2-(pyrimidin-2-yl)propyl)-1-(1-(6-(trifluoromethyl)pyridin-3-yl)ethyl)-4,5-dihydro-1H-pyrazolo[3,4-d]pyrimidine-3-carbonitrile]

Second part, the molecule before the results:

SMILES	Ki [nM]
CCC(c1ncccn1)N(C)c1nc2c(c(C#N)nn2C(C)c2ccc(C3CC3)nc2)c(=O)[nH]1 (single isomer, unassigned) [Example 3, 1-(1-(6-Cyclopropylpyridin-3-yl)ethyl)-6-(methyl(1-(pyrimidin-2-yl)propyl)amino)-4-oxo-4,5-dihydro-1H-pyrazolo[3,4-d]pyrimidine-3-carbonitrile]	1.82
CCC(c1ncc(C(F)F)cn1)N(C)c1nc2c(c(C#N)nn2C(C)c2ccc(C(F)(F)F)nc2)c(=O)[nH]1 (single isomer, unassigned) [Example 20, 6-[1-[5-(difluoromethyl)pyrimidin-2-yl]propyl-methyl-amino]-4-oxo-1-[1-[6-(trifluoromethyl)-3-pyridyl]ethyl]-5H-pyrazolo[3,4-d]pyrimidine-3-carbonitrile]	1.57
CCC(c1ncc(C(F)F)cn1)N(C)c1nc2c(c(C#N)nn2C(C)c2ccc(C(F)(F)F)nc2)c(=O)[nH]1 (single isomer, unassigned) [Example 18, 6-[1-[5-(difluoromethyl)pyrimidin-2-yl]propyl-methyl-amino]-4-oxo-1-[1-[6-(trifluoromethyl)-3-pyridyl]ethyl]-5H-pyrazolo[3,4-d]pyrimidine-3-carbonitrile]	2.07
CC(c1ccc(C(F)(F)F)nc1)n1nc(C#N)c2c(=O)[nH]c(N(C)C(c3ncccn3)C3CC3)nc21 (single isomer, unassigned) [Example 28, 6-[[cyclopropyl(pyrimidin-2-yl)methyl]-methyl-amino]-4-oxo-1-[1-[6-(trifluoromethyl)-3-pyridyl]ethyl]-5H-pyrazolo[3,4-d]pyrimidine-3-carbonitrile]	20.3
CC(c1ccc(C(F)(F)F)nc1)n1nc(C#N)c2c(=O)[nH]c(N(C)C(c3ncccn3)C3CC3)nc21 (single isomer, unassigned) [Example 26, 6-[[cyclopropyl(pyrimidin-2-yl)methyl]-methyl-amino]-4-oxo-1-[1-[6-(trifluoromethyl)-3-pyridyl]ethyl]-5H-pyrazolo[3,4-d]pyrimidine-3-carbonitrile]	52.9
CCC(c1ncc(F)cn1)N(C)c1nc2c(c(C#N)nn2C(C)c2ccc(C(F)(F)F)nc2)c(=O)[nH]1 (single isomer, unassigned) [Example 77, 6-((1-(5-fluoropyrimidin-2-yl)propyl)(methyl)amino)-4-oxo-1-(1-(6-(trifluoromethyl)pyridin-3-yl)ethyl)-4,5-dihydro-1H-pyrazolo[3,4-d]pyrimidine-3-carbonitrile]	0.27
CC(c1ccc(C(F)(F)F)nc1)n1nc(C#N)c2c(=O)[nH]c(CCc3ncc(C4CC4)cn3)nc21 (single isomer, unassigned) [Example 81, 6-(2-(5-cyclopropylpyrimidin-2-yl)ethyl)-4-oxo-1-(1-(6-(trifluoromethyl)pyridin-3-yl)ethyl)-4,5-dihydro-1H-pyrazolo[3,4-d]pyrimidine-3-carbonitrile]	0.5
CCC(c1ncccn1)N(C)c1nc2c(c(C#N)nn2C(C)c2ccc(C3CC3)nc2)c(=O)[nH]1 (single isomer, unassigned) [Example 1, 1-(1-(6-Cyclopropylpyridin-3-yl)ethyl)-6-(methyl(1-(pyrimidin-2-yl)propyl)amino)-4-oxo-4,5-dihydro-1H-pyrazolo[3,4-d]pyrimidine-3-carbonitrile]	3.2
CCC(c1ncc(F)cn1)N(C)c1nc2c(c(C#N)nn2C(C)C2CCOCC2)c(=O)[nH]1 (single isomer, unassigned) [Example 39, 6-[1-(5-fluoropyrimidin-2-yl)propyl-methyl-amino]-4-oxo-1-(1-tetrahydropyran-4-ylethyl)-5H-pyrazolo[3,4-d]pyrimidine-3-carbonitrile]	0.17
CC(c1ccc(C(F)(F)F)nc1)n1nc(C#N)c2c(=O)[nH]c(N3CCC3c3ccc(F)cc3)nc21 (single isomer, unassigned) [Example 50, 6-[2-(4-fluorophenyl)azetidin-1-yl]-4-oxo-1-[1-[6-(trifluoromethyl)-3-pyridyl]ethyl]-5H-pyrazolo[3,4-d]pyrimidine-3-carbonitrile]	0.6
